Data taken from patent US7709494B2, “4,5-diphenyl-pyrimidinyl-oxy or -mercapto substituted carboxylic acids, method for the production and use thereof as medicaments” (Sanofi-Aventis, priority 2006, dated 2010).

These compounds were tested against T1, GPCR GPR40 (Homo sapiens, UniProt O14842) (assay: In vitro FLIPR assay with recombinant cells which express the GPCR GPR40 (agonist-induced intracellular Ca2+ change)). Settings: recombinant HEK293 cells expressing GPR40; 100 μM test substance; percentage change relative to control (0%: no test substance; 100%: 10 μM reference agonist linoleic acid).
T1 construct: expressed in transfected cells; host or cells: HEK293
T1 sequence (O14842 whole entry): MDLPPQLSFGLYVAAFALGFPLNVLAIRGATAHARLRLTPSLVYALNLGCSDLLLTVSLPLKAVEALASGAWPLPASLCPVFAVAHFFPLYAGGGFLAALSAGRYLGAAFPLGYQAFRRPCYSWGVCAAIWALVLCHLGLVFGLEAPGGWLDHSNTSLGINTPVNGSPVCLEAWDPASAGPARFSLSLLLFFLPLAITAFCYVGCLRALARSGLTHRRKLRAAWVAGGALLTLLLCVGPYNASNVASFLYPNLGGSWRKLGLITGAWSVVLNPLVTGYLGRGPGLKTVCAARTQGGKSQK
Format: cell-based
Protocol: In vitro FLIPR assay with recombinant cells which express the GPCR GPR40
Function-testing assays were carried out by means of the FLIPR technique (“Fluorescence Imaging Plate Reader”, Molecular Devices Corp.). For this purpose, agonist-induced changes in the intracellular concentration of Ca^2+ in recombinant HEK293 cells which expressed the GPCR. GPR40 were determined.
For the investigations, cells were seeded in 96-well microtiter plates (60 000 cells/well) and allowed to grow overnight. The medium was removed and the cells were incubated in buffer which contained the fluorescent dye fluo-4. After this loading with dye, the cells were washed, test substance was added, and changes in the intracellular Ca^2+ concentration were measured in the FLIPR instrument. Results have been presented as percentage change relative to the control (0%: no test substance added; 100%: 10 μM reference agonist linoleic acid added).

| Compound | % activation @ 100 μM [%] |
| --- | --- |
| O=C(O)C1CCC(COc2ncc(-c3ccccc3)c(-c3ccccc3)n2)CC1 (mixture of isomers) [Example 4, Cis/trans-4-(4,5-diphenylpyrimidin-2-yloxymethyl)cyclohexanecarboxylic cid] | 96 |
| O=C(O)[C@H]1CC[C@@H](COc2ncc(-c3ccccc3)c(-c3ccccc3)n2)C1 (relative stereo) [Example 3, cis-3-(4,5-Diphenylpyrimidin-2-yloxymethyl)cyclopentanecarboxylic acid] | 76 |
| O=C(O)[C@H]1CCC[C@@H](COc2ncc(-c3ccccc3)c(-c3ccccc3)n2)C1 [Example 1, (1S,3R)-3-(4,5-Diphenylpyrimidin-2-yloxymethyl)cyclohexanecarboxylic acid] | 74 |
| O=C(O)CC12CC3CC(C1)CC(Sc1ncc(-c4ccccc4)c(-c4ccccc4)n1)(C3)C2 [Example 5, [3-(4,5-Diphenylpyriidin-2-ylsulfanyl)adamantan-1-yl]acetic acid] | 64 |
| O=C(O)[C@H]1CCCC(Oc2ncc(-c3ccccc3)c(-c3ccccc3)n2)C1 (stereo partly drawn) [Example 6, (1S)-3-(4,5-Diphenylpyrimidin-2-yloxy)cyclohexanecarboxylic acid] | 66 |
| O=C(O)C1CC1CCCCCSc1ncc(-c2ccccc2)c(-c2ccccc2)n1 (stereo not drawn) [Example 7, 2-[5-(4,5-Diphenylpyrimidin-2-ylsulfanyl)pentyl]cyclopropanecarboxylic acid] | 101 |
| O=C(O)C1CC1CCCCOc1ncc(-c2ccccc2)c(-c2ccccc2)n1 (stereo not drawn) [Example 9, 2-[4-(4,5-Diphenylpyrimidin-2-yloxy)butyl]cyclopropanecarboxylic acid] | 101 |
| CCC(CCC1CC1C(=O)O)Oc1ncc(-c2ccccc2)c(-c2ccccc2)n1 (stereo not drawn) [Example 10, 2-[3-(4,5-Diphenylpyrimidin-2-yloxy)pentyl]cyclopropanecarboxylic acid] | 5 |
| cis-(4,5-Diphenylpyrimidin-2-yloxymethyl)cyclohexanecarboxylic acid [Example 2] | 91 |
